Tested on: HCV pseudoparticles
Test: HCV pseudoparticle infection assay (luciferase reporter, Huh7 cells)
Type: cell-based, HCV (genotype 1b E1 and E2 envelope)
Settings: Hepatitis C virus, genotype 1b, Huh-7, 48 h, HCV pseudoparticles (genotype 1b), luciferase activity 2 days after infection

Row | SMILES | EC50 | EC50 (class)
1 | CS(=O)(=O)NC(=O)CNC(=O)c1ccc(Nc2nc(NC3(c4ccc(Cl)cc4)CC3)nc(OCC(F)(F)F)n2)cc1 [Example 2009] | 97 nM | 0.5 to 100 nM
2 | CN(C)S(=O)(=O)NC(=O)C1(CNC(=O)c2ccc(Nc3nc(NC4(c5ccc(Cl)cc5)CC4)nc(OCC(F)(F)F)n3)cc2)CC1 [Example 2078] |  | 0.5 to 100 nM
3 | O=C(NCCS(=O)(=O)NC(=O)c1ccc(Nc2nc(NC3(c4ccc(Cl)cc4)CC3)nc(OCC(F)(F)F)n2)cc1)Nc1cccnc1 [Example 1050] |  | 0.5 to 100 nM
4 | CC(C)(C)OC(=O)N1CCC[C@H]1C(=O)NS(=O)(=O)CCNC(=O)c1ccc(Nc2nc(NC3(c4ccc(Cl)cc4)CC3)nc(OCC(F)(F)F)n2)cc1 [Example 4004] | 2.6 nM | 0.5 to 100 nM
5 | COCC1(S(=O)(=O)NC(=O)c2ccc(Nc3nc(NC4(c5ccc(Cl)cc5)CC4)nc(OCC(F)(F)F)n3)cc2)CC1 [Example 1010] |  | 0.5 to 100 nM
6 | O=C(NS(=O)(=O)CCN1CCCC1)c1ccc(Nc2nc(NC3(c4ccc(Cl)cc4)CC3)nc(OCC(F)(F)F)n2)cc1 [Example 1029, 4-(4-(1-(4-chlorophenyl)cyclopropylamino)-6-(2,2,2-trifluoroethoxy)-1,3,5-triazin-2-ylamino)-N-(2-(pyrrolidin-1-yl)ethylsulfonyl)benzamide] |  | 0.5 to 100 nM
7 | O=C(CCCCNC(=O)c1ccc(Nc2nc(NC3(c4ccc(Cl)cc4)CC3)nc(OCC(F)(F)F)n2)cc1)NS(=O)(=O)C1CCC1 [Example 2028] |  | 0.5 to 100 nM
8 | C=CS(=O)(=O)NC(=O)CCCCNC(=O)c1ccc(Nc2nc(NC3(c4ccc(Cl)cc4)CC3)nc(OCC(F)(F)F)n2)cc1 [Example 2015] |  | 0.5 to 100 nM
9 | O=C(CC(F)(F)F)NCCS(=O)(=O)NC(=O)c1ccc(Nc2nc(NC3(c4ccc(Cl)cc4)CC3)nc(OCC(F)(F)F)n2)cc1 [Example 1040] |  | 0.5 to 100 nM
10 | O=C(NS(=O)(=O)C1(CN2CC3CC3C2)CC1)c1ccc(Nc2nc(NC3(c4ccc(Cl)cc4)CC3)nc(OCC(F)(F)F)n2)cc1 (stereo not shown) [Example 1024] |  | 0.5 to 100 nM
11 | O=C(NS(=O)(=O)C1(CN2CCC2)CC1)c1ccc(Nc2nc(NC3(c4ccc(Cl)cc4)CC3)nc(OCC(F)(F)F)n2)cc1 [Example 1013] |  | 0.5 to 100 nM
12 | CC(C)(C)S(=O)(=O)NC(=O)C1(CNC(=O)c2ccc(Nc3nc(NC4(c5ccc(Cl)cc5)CC4)nc(OCC(F)(F)F)n3)cc2)CC1 [Example 2075] |  | 0.5 to 100 nM
13 | CC(C)S(=O)(=O)NC(=O)[C@H](C)NC(=O)CCCNC(=O)c1ccc(Nc2nc(NC3(c4ccc(Cl)cc4)CC3)nc(OCC(F)(F)F)n2)cc1 [Example 2055] |  | 0.5 to 100 nM
14 | CCCC1(S(=O)(=O)NC(=O)c2ccc(Nc3nc(NC4(c5ccc(Cl)cc5)CC4)nc(OCC(F)(F)F)n3)cc2)CC1 [Example 1007] |  | 0.5 to 100 nM
15 | CNC(=O)OCC1(S(=O)(=O)NC(=O)c2ccc(Nc3nc(NC4(c5ccc(Cl)cc5)CC4)nc(OCC(F)(F)F)n3)cc2)CC1 [Example 1026] | 103 nM | 100 to 1000 nM
16 | C[C@@H](NC(=O)CCCNC(=O)c1ccc(Nc2nc(NC3(c4ccc(Cl)cc4)CC3)nc(OCC(F)(F)F)n2)cc1)C(=O)NS(C)(=O)=O [Example 2051, (R)-4-(4-(1-(4-chlorophenyl)cyclopropylamino)-6-(2,2,2-trifluoroethoxy)-1,3,5-triazin-2-ylamino)-N-(4-(1-(methylsulfonamido)-1-oxopropan-2-ylamino)-4-oxobutyl)benzamide] |  | 0.5 to 100 nM
17 | CCN(CC)CCS(=O)(=O)NC(=O)c1ccc(Nc2nc(NC3(c4ccc(Cl)cc4)CC3)nc(OCC(F)(F)F)n2)cc1 [Example 1032] |  | 0.5 to 100 nM
18 | CN(C)CCS(=O)(=O)NC(=O)c1ccc(Nc2nc(NC3(c4ccc(Cl)cc4)CC3)nc(OCC(F)(F)F)n2)cc1 [Example 1031] |  | 0.5 to 100 nM
19 | CC(=O)NS(=O)(=O)CCNC(=O)c1ccc(Nc2nc(NC3(c4ccc(Cl)cc4)CC3)nc(OCC(F)(F)F)n2)cc1 [Example 4000] |  | 0.5 to 100 nM

Row | SMILES | EC50 | EC50 (class)
20 | O=C(NS(=O)(=O)CCNCc1ccccc1)c1ccc(Nc2nc(NC3(c4ccc(Cl)cc4)CC3)nc(OCC(F)(F)F)n2)cc1 [Example 1034] |  | 0.5 to 100 nM
21 | O=C(CCCCNC(=O)c1ccc(Nc2nc(NC3(c4ccc(Cl)cc4)CC3)nc(OCC(F)(F)F)n2)cc1)NS(=O)(=O)C1CC1 [Example 2012] |  | 0.5 to 100 nM
22 | O=C(NS(=O)(=O)c1ccc(Nc2nc(NC3(c4ccc(Cl)cc4)CC3)nc(OCC(F)(F)F)n2)cc1)C1(CN2CCCCC2)CC1 [Example 3002] | 477 nM | 100 to 1000 nM
23 | CCS(=O)(=O)NC(=O)[C@@]1(NC(=O)CCCNC(=O)c2ccc(Nc3nc(NC4(c5ccc(Cl)cc5)CC4)nc(OCC(F)(F)F)n3)cc2)C[C@H]1C1CC1(F)F (stereo partly shown) [Example 2047] |  | 0.5 to 100 nM
24 | CC(C)(CNC(=O)c1ccc(Nc2nc(NC3(c4ccc(Cl)cc4)CC3)nc(OCC(F)(F)F)n2)cc1)C(=O)NC1(C(=O)NS(=O)(=O)C2CC2)CC1 [Example 2095] |  | 0.5 to 100 nM
25 | O=C(NS(=O)(=O)c1ccc(Nc2nc(NC3(c4ccc(Cl)cc4)CC3)nc(OCC(F)(F)F)n2)cc1)C1(CN2CCCC2)CC1 [Example 3001] |  | 1000 to 5000 nM
26 | CN(C)S(=O)(=O)NC(=O)c1ccc(Nc2nc(NC3(c4ccc(Cl)cc4)CC3)nc(OCC(F)(F)F)n2)cc1 [Example 1006] | 39 nM | 0.5 to 100 nM
27 | C=C[C@@H]1C[C@]1(NC(=O)C1(CNC(=O)c2ccc(Nc3nc(NC4(c5ccc(Cl)cc5)CC4)nc(OCC(F)(F)F)n3)cc2)CC1)C(=O)NS(=O)(=O)C1CC1 [Example 2065] |  | 0.5 to 100 nM
28 | CS(=O)(=O)NC(=O)c1ccc(Nc2nc(NC3(c4ccc(Cl)cc4)CC3)nc(OCC(F)(F)F)n2)cc1 [Example 1002] |  | 0.5 to 100 nM
29 | CS(=O)(=O)NC(=O)[C@@]1(NC(=O)CCCNC(=O)c2ccc(Nc3nc(NC4(c5ccc(Cl)cc5)CC4)nc(OCC(F)(F)F)n3)cc2)C[C@H]1C1CC1(F)F (stereo partly shown) [Example 2046] |  | 0.5 to 100 nM
30 | CC(C)N(C(=O)C1(CNC(=O)c2ccc(Nc3nc(NC4(c5ccc(Cl)cc5)CC4)nc(OCC(F)(F)F)n3)cc2)CC1)S(N)(=O)=O [Example 2079] |  | 0.5 to 100 nM
31 | CS(=O)(=O)NC(=O)CCCNC(=O)c1ccc(Nc2nc(NC3(c4ccc(Cl)cc4)CC3)nc(OCC(F)(F)F)n2)cc1 [Example 2019] |  | 0.5 to 100 nM
32 | O=C(CN1CCCC1=O)NCC1(C(=O)NS(=O)(=O)c2ccc(Nc3nc(NC4(c5ccc(Cl)cc5)CC4)nc(OCC(F)(F)F)n3)cc2)CC1 [Example 3008] | 976 nM | 100 to 1000 nM
33 | O=C(CCCNC(=O)c1ccc(Nc2nc(NC3(c4ccc(Cl)cc4)CC3)nc(OCC(F)(F)F)n2)cc1)N[C@]1(C(=O)NS(=O)(=O)C2(C(F)F)CC2)C[C@H]1C1CC1 [Example 2045] | 0.72 nM | 0.5 to 100 nM
34 | CC(=O)NCCS(=O)(=O)NC(=O)c1ccc(Nc2nc(NC3(c4ccc(Cl)cc4)CC3)nc(OCC(F)(F)F)n2)cc1 [Example 1036] |  | 0.5 to 100 nM
35 | CC(C)S(=O)(=O)NC(=O)c1ccc(Nc2nc(NC3(c4ccc(Cl)cc4)CC3)nc(OCC(F)(F)F)n2)cc1 [Example 1005] |  | 0.5 to 100 nM
36 | CC(C)(C)CNCC1(C(=O)NS(=O)(=O)c2ccc(Nc3nc(NC4(c5ccc(Cl)cc5)CC4)nc(OCC(F)(F)F)n3)cc2)CC1 [Example 3007] | 2800 nM | 1000 to 5000 nM
37 | CN(C)S(=O)(=O)NC(=O)CCCCNC(=O)c1ccc(Nc2nc(NC3(c4ccc(Cl)cc4)CC3)nc(OCC(F)(F)F)n2)cc1 [Example 2030] |  | 0.5 to 100 nM
38 | CC(C)(C)NC(=O)NCCS(=O)(=O)NC(=O)c1ccc(Nc2nc(NC3(c4ccc(Cl)cc4)CC3)nc(OCC(F)(F)F)n2)cc1 [Example 1049] |  | 0.5 to 100 nM
